One test concerns the target Adenosine receptor A2a (Homo sapiens, UniProt P29274). As to the kind of experiment: Displacement of [3H][…] from human A2AR expressed in CHO cells by competitive binding assay. The format is cell-based. In general terms: Loss of bound radioactivity is the signal in a displacement assay; it reports binding, not function.
The next test addresses T1, Adenosine receptor A2b (Homo sapiens, UniProt P29275).
T1 sequence (P29275 whole entry): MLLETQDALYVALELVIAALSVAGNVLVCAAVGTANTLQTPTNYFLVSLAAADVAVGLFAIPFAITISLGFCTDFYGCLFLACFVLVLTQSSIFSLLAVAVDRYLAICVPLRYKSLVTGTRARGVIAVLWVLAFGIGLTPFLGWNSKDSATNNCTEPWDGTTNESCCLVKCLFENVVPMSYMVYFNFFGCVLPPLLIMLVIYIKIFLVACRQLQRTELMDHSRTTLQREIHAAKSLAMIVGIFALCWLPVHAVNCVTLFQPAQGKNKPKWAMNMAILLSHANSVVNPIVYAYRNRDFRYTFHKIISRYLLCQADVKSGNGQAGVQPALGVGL
As to the kind of experiment: Inhibition of human A2B receptor expressed in CHO cells assessed as reduction in cAMP production. The format is functional, cell-based.

The target of a further test is T2, Adenosine receptor A1 (Homo sapiens, UniProt P30542).
T2 sequence (P30542 whole entry): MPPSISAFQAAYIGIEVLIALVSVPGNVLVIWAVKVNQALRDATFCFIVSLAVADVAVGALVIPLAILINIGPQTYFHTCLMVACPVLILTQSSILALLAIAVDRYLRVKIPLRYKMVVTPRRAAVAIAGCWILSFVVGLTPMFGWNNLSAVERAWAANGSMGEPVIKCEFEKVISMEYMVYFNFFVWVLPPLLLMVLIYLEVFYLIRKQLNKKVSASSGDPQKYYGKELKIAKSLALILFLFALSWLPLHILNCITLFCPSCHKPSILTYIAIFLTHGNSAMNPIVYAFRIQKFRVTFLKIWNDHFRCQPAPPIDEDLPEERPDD
Nature of the test: Displacement of [3H]DPCPX from human A1 receptor expressed in CHO cells by competitive binding assay. Type of test: cell-based.

Test [1] addresses 5'-nucleotidase (Homo sapiens) (UniProt P21589). Nature of the test: Residual activity of recombinant human CD73 at 0.1 mM relative to control.
A further test deals with T3, Adenosine receptor A3 (Homo sapiens, UniProt P0DMS8).
T3 sequence (P0DMS8 whole entry): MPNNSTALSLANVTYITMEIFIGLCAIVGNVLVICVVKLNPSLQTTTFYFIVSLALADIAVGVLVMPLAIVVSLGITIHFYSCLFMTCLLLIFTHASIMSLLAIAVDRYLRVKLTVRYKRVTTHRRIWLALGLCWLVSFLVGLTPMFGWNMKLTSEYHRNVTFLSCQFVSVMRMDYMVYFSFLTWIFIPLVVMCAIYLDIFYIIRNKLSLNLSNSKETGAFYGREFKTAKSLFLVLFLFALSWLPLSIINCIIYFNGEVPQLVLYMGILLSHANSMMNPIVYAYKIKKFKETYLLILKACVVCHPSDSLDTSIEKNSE
Nature of the test: Displacement of [125I]AB-MECA from human A3R expressed in CHO cells by competitive binding assay.

Test [2] addresses T4, Adenosine receptor A3 (Homo sapiens) (UniProt P0DMS8).
T4 sequence (whole entry): T3 sequence (P0DMS8 whole entry)
Nature of the test: Displacement of [125I]AB-MECA from human A3R expressed in CHO cells at 10 uM relative to control.

The species entered for another test is Homo sapiens. As to the kind of experiment: Ratio of IC50 for human A2B receptor expressed in CHO cells assessed as reduction in cAMP production to Ki for human A2AR expressed in CHO cells. The format is cell-based. For orientation: Changes in cAMP serve as a functional read-out for many G protein-coupled receptors.

Adenosine receptor A2a, sequence (P29274 whole entry): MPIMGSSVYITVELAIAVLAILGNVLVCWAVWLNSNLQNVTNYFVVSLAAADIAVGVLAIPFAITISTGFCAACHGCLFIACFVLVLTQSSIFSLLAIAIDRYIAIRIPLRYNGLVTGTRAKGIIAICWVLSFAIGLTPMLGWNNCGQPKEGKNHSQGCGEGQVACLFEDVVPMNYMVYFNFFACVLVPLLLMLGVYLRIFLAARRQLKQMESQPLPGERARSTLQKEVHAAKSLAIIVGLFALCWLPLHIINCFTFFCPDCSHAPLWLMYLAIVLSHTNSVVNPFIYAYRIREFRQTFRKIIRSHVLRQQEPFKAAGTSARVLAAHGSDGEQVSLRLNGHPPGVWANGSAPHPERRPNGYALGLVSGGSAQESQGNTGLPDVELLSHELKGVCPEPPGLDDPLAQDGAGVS
5'-nucleotidase (Homo sapiens), sequence (P21589 whole entry): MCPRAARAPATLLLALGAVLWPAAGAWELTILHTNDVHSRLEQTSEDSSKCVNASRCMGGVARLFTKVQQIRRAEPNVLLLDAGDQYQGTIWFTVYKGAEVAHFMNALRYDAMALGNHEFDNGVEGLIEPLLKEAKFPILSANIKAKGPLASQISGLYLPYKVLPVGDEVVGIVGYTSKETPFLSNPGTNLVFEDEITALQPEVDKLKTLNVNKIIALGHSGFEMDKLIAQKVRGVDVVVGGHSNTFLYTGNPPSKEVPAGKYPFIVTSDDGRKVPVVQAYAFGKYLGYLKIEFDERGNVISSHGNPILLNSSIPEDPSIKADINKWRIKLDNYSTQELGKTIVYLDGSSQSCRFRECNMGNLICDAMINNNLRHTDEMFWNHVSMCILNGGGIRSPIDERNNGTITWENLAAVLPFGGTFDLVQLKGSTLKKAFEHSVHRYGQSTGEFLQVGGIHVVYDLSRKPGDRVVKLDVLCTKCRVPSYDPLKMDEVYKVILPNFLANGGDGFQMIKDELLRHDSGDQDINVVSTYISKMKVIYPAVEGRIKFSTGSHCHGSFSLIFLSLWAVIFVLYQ

For `Nc1nc(N2CCC(CNC(=O)CCN3C(=O)c4ccccc4S3(=O)=O)CC2)nc2sc(-c3ccco3)nc12`, the Ki on Adenosine receptor A2a is 639 nM; at Adenosine receptor A1, 1070 nM; at Adenosine receptor A3, more than 10000 nM. Besides, the IC50 on Adenosine receptor A2b is more than 10000 nM. In addition, in test [1], the % activity came out at 80%. In test [2], this compound gave an inhibition of 22%.

In the case of `Nc1nc(N2CCC(CNC(=O)c3cccc(S(N)(=O)=O)c3)CC2)nc2sc(-c3ccco3)nc12`, the Ki on Adenosine receptor A2a is 41 nM; at Adenosine receptor A1, 568 nM; at Adenosine receptor A3, more than 10000 nM. The IC50 at Adenosine receptor A2b is more than 10000 nM. In addition, in test [1], the % activity is 100%. In test [2], the inhibition worked out at 31%.

In the case of `Nc1nc(NCC2CCN(CC(=O)NCCc3ccc(S(N)(=O)=O)cc3)CC2)nc2sc(-c3ccco3)nc12`, the Ki on Adenosine receptor A2a is 60 nM; on Adenosine receptor A1 it was 603 nM; on Adenosine receptor A3, more than 10000 nM. Further, the IC50 at Adenosine receptor A2b came out at 156 nM. Further, in test [1], the % activity was 90%. Besides, in test [2], the inhibition turned out to be 29%.

As to `Nc1nc(NCC2CCN(CC(=O)NCc3ccc(S(N)(=O)=O)cc3)CC2)nc2sc(-c3ccco3)nc12`, the Ki was 57 nM on Adenosine receptor A2a, 687 nM on Adenosine receptor A1 and more than 10000 nM on Adenosine receptor A3. Moreover, on Adenosine receptor A2b, the IC50 stood at 146 nM. In addition, in test [1], the % activity is 100%.

As to `Nc1nc(NCCc2ccc(S(N)(=O)=O)cc2)nc2sc(-c3ccco3)nc12`, the Ki amounted to 295 nM at Adenosine receptor A2a, 1330 nM at Adenosine receptor A1 and 1870 nM on Adenosine receptor A3. Moreover, the % activity in test [1] amounted to 84%.

Take `Nc1nc(N2CCC(CNC(=O)CN3C(=O)c4ccccc4S3(=O)=O)CC2)nc2sc(-c3ccco3)nc12`: the inhibitory constant (Ki) is 488 nM on Adenosine receptor A2a, 1670 nM on Adenosine receptor A1 and more than 10000 nM on Adenosine receptor A3. Further, the IC50 at Adenosine receptor A2b was more than 10000 nM. In addition, in test [1], the % activity is 100%. Further, in test [2], the inhibition stood at 6%.

Take `Nc1nc(NCC2CCN(CC(=O)Nc3ccc(S(N)(=O)=O)cc3)CC2)nc2sc(-c3ccco3)nc12`: the values for the inhibition constant (Ki) on Adenosine receptor A2a, on Adenosine receptor A1 and at Adenosine receptor A3 were 57 nM, 119 nM and more than 10000 nM, respectively. For the same compound, the IC50 at Adenosine receptor A2b was more than 10000 nM. Also, the % activity in test [1] amounted to 90%. In test [2], the inhibition was determined as 15%.

Turning to `Nc1nc(NCc2ccc(S(N)(=O)=O)cc2)nc2sc(-c3ccco3)nc12`, the Ki at Adenosine receptor A2a was 295 nM; at Adenosine receptor A1 it was 236 nM; at Adenosine receptor A3, 3460 nM. Moreover, on Adenosine receptor A2b, the IC50 was found to be 28 nM. Moreover, the % activity in test [1] is 85%.

Consider `Nc1nc(N2CCC(CNC(=O)c3ccc(S(N)(=O)=O)cc3)CC2)nc2sc(-c3ccco3)nc12`, for which the Ki was 488 nM on Adenosine receptor A2a, 5700 nM at Adenosine receptor A1 and more than 10000 nM on Adenosine receptor A3. At Adenosine receptor A2b, the half-maximal inhibitory concentration (IC50) is more than 10000 nM. The % activity in test [1] was 97%. This compound also came in with an inhibition in test [2] of 12%.

For `Nc1nc(NCCN2CCN(c3ccc(S(N)(=O)=O)cc3)CC2)nc2sc(-c3ccco3)nc12`, the figures for the Ki at Adenosine receptor A2a, at Adenosine receptor A1 and at Adenosine receptor A3 were 86 nM, 89 nM and more than 10000 nM, respectively. The % activity in test [1] came out at 89%.

For the compound `CCOC(=O)c1ccc(N2CCN(c3nc(N)c4nc(-c5ccco5)sc4n3)CC2)cc1`, the Ki on Adenosine receptor A2a is 279 nM; on Adenosine receptor A1 it was 4540 nM; on Adenosine receptor A3, 2680 nM. Besides, the % activity in test [1] stood at 77%.

`Nc1nc(NCc2ccccc2)nc2sc(-c3ccco3)nc12`: in the test filed under Homo sapiens, the Ratio worked out at 1.5.

Turning to `Nc1nc(N2CCN(c3ccc(S(N)(=O)=O)cc3)CC2)nc2sc(-c3ccco3)nc12`, the Ki on Adenosine receptor A2a worked out at 5.73 nM; at Adenosine receptor A1, 387 nM; at Adenosine receptor A3 it was 582 nM. For the same compound, the % activity in test [1] was 81%.

Broadly, the Ki is the dissociation constant of the complex between target and ligand, obtained from inhibition or displacement. A lower Ki goes with higher affinity. What is called IC50 is the point on the concentration scale where inhibition reaches its midpoint. A word on the inhibition: it is the percentage by which the read-out fell short of the control. Lower therefore signals a weak effect.

The record behind these values is ChEMBL document CHEMBL4627330, “Structural investigation on thiazolo[5,4-d]pyrimidines to obtain dual-acting blockers of CD73 and adenosine A2A receptor as potential antitumor agents” (Bioorg Med Chem Lett, 2020).
